Results as given in article PMC12799362, “The effect of dimeric bisbenzimidazoles on the activity of DNA repair enzymes TDP1, TDP2, PARP1 and PARP2” (Vavilov Journal of Genetics and Breeding, 2025).

How the values were obtained:
[1] = biological target: T1, tyrosyl-DNA phosphodiesterase 1 (TDP1) (Homo sapiens, UniProt Q9NUW8); experiment: Real-time fluorescent detection of TDP1 activity (BHQ1 cleavage from 3′-end of single-stranded FAM oligonucleotide); type: biochemical; conditions: recombinant TDP1 1.5 nM, 50 nM single-stranded oligonucleotide, 26 °C; mean ± SD, at least three replicates
T1 construct: made in house; host or cells: E. coli
Experimental: (§1) Recombinant human proteins tyrosyl-DNA phosphodiesterase 1 (TDP1) and tyrosyl-DNA phosphodiesterase 2 (TDP2) were expressed in the E. coli system, poly(ADP-ribose) polymerase 1 (PARP1) and poly(ADP-ribose) polymerase 2 (PARP2) were expressed in insect cells using a baculovirus expression system and purified as described in (Sukhanova et al., 2004; Sherstyuk et al., 2019; Dyrkheeva et al., 2020, 2021).
Determination of TDP1 activity. The reaction mixture (200 μl) for real-time fluorescent detection of TDP1 enzyme activity (Zakharenko et al., 2015) contained TDP1 reaction buffer (50 mM Tris-HCl, pH 8.0, 50 mM NaCl, and 7 mM β-mercaptoethanol), 50 nM oligonucleotide 5′-FAM-AAC GTC AGG GTC TTC C-BHQ1-3′, the test compound at various concentrations, and TDP1 at a final concentration of 1.5 nM. The reaction mixtures were incubated at a constant temperature of 26 °C in a POLARstar OPTIMA microplate fluorometer (BMG LABTECH, GmbH, Ortenberg, Germany). Fluorescence intensity (Ex485/Em520 nm) was measured every minute for 10 min. Mean values of half-maximal inhibitory concentration (IC50 – the concentration of the compound that inhibited 50 % of enzyme activity compared to the untreated control well containing only enzyme and substrate) were determined using a dose-response curve of the fluorescence signal level versus inhibitor concentration and calculated using MARS Data Analysis 2.0 (BMG LABTECH). Kinetic curves were obtained in at least three independent experiments and statistically processed in OriginPro 8.6.0 (OriginLab, Northampton, Massachusetts, USA).
The third group of compounds includes derivatives of the monomeric compound MB2Py(Ac), which is an isosteric analog of MB3, due to the fact that the pyrrolecarboxamide fragment contained in its structure can act as a hydrogen atom donor at the carboxamide nitrogen for hydrogen bond formation, in a position analogous to benzimidazole. Dimeric derivatives are represented by the DB2Py(n) series containing n-alkyldicarboxylic acids as a linker. This series is represented by a set of compounds containing 1, 3, 4, 5, 7, 9, and 11 methylene units, which allowed for a more accurate assessment of the dependence of the inhibitory activity of compounds on spacer length. The DB2Py(n) series differs from the DB3(n) series by the presence, in addition to the bisbenzimidazole structure, of a pyrrolecarboxamide structure, which is a fragment of the AT-specific antibiotic netropsin.Using the real-time fluorescence analysis method, halfmaximal inhibitory concentration (IC50) values of the studied compounds (see the Table) were obtained in the reaction of BHQ1 cleavage from the 3′-end of the oligonucleotide by TDP1, which led to an increase in FAM fluorescence at the 5′-end of the chain (Zakharenko et al., 2015). It should also be noted that a single-stranded oligonucleotide was used as substrate to exclude the binding of dimeric bisbenzimidazoles as minor-groove ligands to the DNA substrate and direct their action toward the enzymatic target.

[2] = biological target: T2, tyrosyl-DNA phosphodiesterase 2 (TDP2) (Homo sapiens, UniProt O95551); experiment: TDP2 activity, removal of 5′-tyrosine from oligonucleotide substrate, denaturing PAGE; type: biochemical; conditions: inhibitor 500 μM, TDP2 200 nM, substrate 100 nM, 10 min, 37 °C; mean ± SD; read-out: TDP2 % of residual activity (500 μM)
T2 construct: made in house; host or cells: E. coli
T2 sequence (O95551 1-362): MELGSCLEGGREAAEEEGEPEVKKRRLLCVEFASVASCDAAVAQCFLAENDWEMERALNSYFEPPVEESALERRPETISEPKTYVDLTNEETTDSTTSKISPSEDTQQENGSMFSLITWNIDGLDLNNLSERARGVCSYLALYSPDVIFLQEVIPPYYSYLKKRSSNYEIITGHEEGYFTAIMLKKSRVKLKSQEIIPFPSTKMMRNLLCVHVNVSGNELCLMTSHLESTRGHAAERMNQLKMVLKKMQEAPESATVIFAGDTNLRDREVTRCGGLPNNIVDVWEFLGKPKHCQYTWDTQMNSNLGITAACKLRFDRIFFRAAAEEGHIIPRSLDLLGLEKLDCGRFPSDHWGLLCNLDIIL
From the text: as §1
Determination of TDP2 activity. For determination of TDP2 enzyme activity, an oligonucleotide 5′-tyrosine-AAC GTC AGG GTC TTC C-FAM-3′ containing a 6-FAM label at the 3′-end and an L-tyrosine residue attached via the phenolic OH group to the 5′-terminal phosphate was used as substrate, synthesized at the Russian-French-Japanese Laboratory of Bionanotechnology of Novosibirsk State University as described in (Dyrkheeva et al., 2021). The substrate at a concentration of 100 nM was incubated with TDP2 at a concentration of 200 nM in the absence or presence of inhibitor (500 μM) for 10 min at 37 °C in buffer containing 50 mM Tris-HCl, pH 8.0, 50 mM NaCl, 7 mM β-mercaptoethanol (Dyrkheeva et al., 2021). The reaction was stopped by addition of PAGE loading buffer (TBE, 10 % formamide, 7 M urea, 20 mM EDTA, 0.1 % xylene cyanol, and 0.1 % bromophenol blue). The samples were then heated at 90 °C for 5 min. The enzymatic reaction products were separated by electrophoresis in 20 % denaturing PAGE with 7 M urea at an acrylamide to bisacrylamide ratio of 19:1. A high-resolution Typhoon FLA 9500 laser scanner (GE Healthcare, Chicago, Illinois, USA) was used for gel scanning and visualization, and the data were analyzed using QuantityOne 4.6.7 software (Bio- Rad Laboratories, Inc., Hercules, California, USA). At least three independent experiments were performed, and statistical processing was carried out using OriginPro 8.6.0 (OriginLab, Northampton, Massachusetts, USA).
To study the effect of the studied compounds on TDP2 activity, we tested the ability of this enzyme to remove the tyrosine residue from the 5′-end of the oligonucleotide substrate in the absence and presence of inhibitors, as described in (Dyrkheeva et al., 2021).

[3] = biological target: T3, poly(ADP-ribose) polymerase 1 (PARP1) (Homo sapiens, UniProt P09874); experiment: PARP1 auto-poly(ADP-ribosyl)ation with [32P]-NAD+; type: biochemical; conditions: compound 500 μM, PARP1 200 nM, 0.3 mM [32P]-NAD+, 2 min, 37 °C; mean ± SD; read-out: PARP1 % of residual activity (500 μM)
T3 construct: made in house; host or cells: insect cells (baculovirus expression system)
From the text: as §1
(§2) Determination of PARP1 and PARP2 activity. For determination of PARP1 and PARP2 enzyme activity in the presence and absence of test compounds, radiolabeled [32P]-NAD⁺ was synthesized from α-[32P]-ATP according to the protocol (Sherstyuk et al., 2019). The auto-poly(ADPribosyl) ation reaction was performed in buffer for PARP1: 50 mM Tris-HCl, pH 8.0, 10 mM MgCl2, 150 mM NaCl, and 7 mM β-mercaptoethanol, as well as 2 A260 units/ml activated DNA, 0.3 mM [32P]-NAD⁺ at 37 °C. The reaction was initiated by addition of PARP1 to 200 nM and carried out for 2 min
(§3) The buffer for PARP2 contained: 50 mM Tris-HCl, pH 8.0, 3 mM spermine, 150 mM NaCl, and 7 mM β-mercaptoethanol, 2 A260 units/ml activated DNA, 0.6 mM [32P]-NAD⁺ at 37 °C. The reaction was initiated by addition of PARP2 to 600 nM, and the reaction mixtures were incubated for 5 min. The reaction was stopped by placing 5 μl aliquots on Whatman 1 paper filters impregnated with 5 % trichloroacetic acid (TCA). The filters were washed with 5 % TCA four times and air-dried after removal of TCA with 90 % ethanol. The incorporation of the radioactive label into the reaction product was calculated using a Typhoon FLA 9500 scanner (GE Healthcare, Chicago, Illinois, USA). At least three independent experiments were performed.

[4] = system: poly(ADP-ribose) polymerase 2 (PARP2); experiment: PARP2 auto-poly(ADP-ribosyl)ation with [32P]-NAD+; type: biochemical, human; conditions: compound 500 μM, PARP2 600 nM, 0.6 mM [32P]-NAD+, 5 min, 37 °C; mean ± SD
From the text: as §1, §2, §3

T3 sequence (P09874 whole entry): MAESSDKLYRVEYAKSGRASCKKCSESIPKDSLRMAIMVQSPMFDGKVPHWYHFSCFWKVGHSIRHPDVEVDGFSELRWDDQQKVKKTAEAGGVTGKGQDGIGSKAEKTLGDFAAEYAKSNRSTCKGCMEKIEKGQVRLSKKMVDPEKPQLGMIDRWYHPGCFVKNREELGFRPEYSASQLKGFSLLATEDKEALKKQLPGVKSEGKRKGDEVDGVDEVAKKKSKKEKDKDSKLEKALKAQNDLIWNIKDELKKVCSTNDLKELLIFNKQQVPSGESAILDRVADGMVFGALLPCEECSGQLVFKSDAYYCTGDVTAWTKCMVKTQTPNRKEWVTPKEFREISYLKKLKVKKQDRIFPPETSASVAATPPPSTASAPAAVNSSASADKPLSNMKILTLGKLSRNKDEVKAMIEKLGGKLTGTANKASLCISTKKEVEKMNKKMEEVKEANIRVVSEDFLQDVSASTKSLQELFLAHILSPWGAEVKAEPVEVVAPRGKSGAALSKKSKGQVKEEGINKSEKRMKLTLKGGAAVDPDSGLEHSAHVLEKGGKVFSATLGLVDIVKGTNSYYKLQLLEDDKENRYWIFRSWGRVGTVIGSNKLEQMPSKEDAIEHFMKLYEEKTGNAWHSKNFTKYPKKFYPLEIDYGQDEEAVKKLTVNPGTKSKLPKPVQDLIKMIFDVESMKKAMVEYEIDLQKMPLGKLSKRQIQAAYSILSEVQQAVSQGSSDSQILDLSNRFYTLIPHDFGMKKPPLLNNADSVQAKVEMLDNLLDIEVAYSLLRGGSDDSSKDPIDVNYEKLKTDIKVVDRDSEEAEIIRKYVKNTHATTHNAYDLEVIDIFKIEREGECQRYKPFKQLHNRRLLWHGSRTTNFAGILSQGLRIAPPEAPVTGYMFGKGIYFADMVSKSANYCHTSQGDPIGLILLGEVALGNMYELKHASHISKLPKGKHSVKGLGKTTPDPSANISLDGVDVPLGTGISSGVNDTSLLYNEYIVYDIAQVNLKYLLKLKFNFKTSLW
T1 sequence (Q9NUW8 whole entry): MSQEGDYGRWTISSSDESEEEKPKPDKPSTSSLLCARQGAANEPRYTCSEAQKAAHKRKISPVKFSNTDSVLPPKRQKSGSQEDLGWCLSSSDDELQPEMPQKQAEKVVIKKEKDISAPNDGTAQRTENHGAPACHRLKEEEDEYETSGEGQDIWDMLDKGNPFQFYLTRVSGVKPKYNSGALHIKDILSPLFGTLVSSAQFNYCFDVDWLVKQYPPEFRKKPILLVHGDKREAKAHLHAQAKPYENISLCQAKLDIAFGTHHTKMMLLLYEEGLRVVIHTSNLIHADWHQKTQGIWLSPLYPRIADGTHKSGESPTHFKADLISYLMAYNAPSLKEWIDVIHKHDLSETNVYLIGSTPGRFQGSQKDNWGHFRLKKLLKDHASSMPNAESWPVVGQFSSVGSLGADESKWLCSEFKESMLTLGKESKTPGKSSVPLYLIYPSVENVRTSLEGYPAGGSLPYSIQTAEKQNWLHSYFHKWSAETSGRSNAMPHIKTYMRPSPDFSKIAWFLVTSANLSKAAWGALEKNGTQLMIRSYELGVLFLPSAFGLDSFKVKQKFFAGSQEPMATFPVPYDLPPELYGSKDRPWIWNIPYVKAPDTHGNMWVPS

Row | Compound | IC50 [1] | remaining activity at 500 µM [2] | remaining activity at 500 µM [3] | PARP2 % of residual activity (500 μM) [4]
1 | CN1CCN(c2ccc3nc(-c4ccc5nc(CNC(=O)CN6CCN(CC(=O)NCc7nc8ccc(-c9nc%10ccc(N%11CCN(C)CC%11)cc%10[nH]9)cc8[nH]7)CC6)[nH]c5c4)[nH]c3c2)CC1 [DB2P(1)] | 6 ± 4 µM | 66 ± 7% | 57 ± 16% | ~ 100%
2 | CN1CCN(c2ccc3nc(-c4ccc5nc(CNC(=O)CCN6CCN(CCC(=O)NCc7nc8ccc(-c9nc%10ccc(N%11CCN(C)CC%11)cc%10[nH]9)cc8[nH]7)CC6)[nH]c5c4)[nH]c3c2)CC1 [DB2P(2)] | 9 ± 3 µM | 44 ± 11% | 51 ± 15% | 80 ± 20%
3 | CN1CCN(c2ccc3nc(-c4ccc5nc(CNC(=O)CCCN6CCN(CCCC(=O)NCc7nc8ccc(-c9nc%10ccc(N%11CCN(C)CC%11)cc%10[nH]9)cc8[nH]7)CC6)[nH]c5c4)[nH]c3c2)CC1 [DB2P(3)] | 4.1 ± 0.6 µM | 36 ± 7% | 37 ± 10% | 64 ± 16%
4 | CN1CCN(c2ccc3nc(-c4ccc5nc(CNC(=O)CCCCN6CCN(CCCCC(=O)NCc7nc8ccc(-c9nc%10ccc(N%11CCN(C)CC%11)cc%10[nH]9)cc8[nH]7)CC6)[nH]c5c4)[nH]c3c2)CC1 [DB2P(4)] | 2.3 ± 0.3 µM | 44 ± 11% | 33 ± 13% | 85 ± 13%
5 | CCCn1cc(NC(=O)CC(=O)Nc2cc(-c3nc4ccc(-c5nc6ccc(N7CCN(C)CC7)cc6[nH]5)cc4[nH]3)n(CCC)c2)cc1-c1nc2ccc(-c3nc4ccc(N5CCN(C)CC5)cc4[nH]3)cc2[nH]1 [DB2Py(1)] | 0.25 ± 0.05 µM | 55 ± 3% | ~100% | ~ 100%
6 | CCCn1cc(NC(=O)CCCC(=O)Nc2cc(-c3nc4ccc(-c5nc6ccc(N7CCN(C)CC7)cc6[nH]5)cc4[nH]3)n(CCC)c2)cc1-c1nc2ccc(-c3nc4ccc(N5CCN(C)CC5)cc4[nH]3)cc2[nH]1 [DB2Py(3)] | 0.41 ± 0.09 µM | 70 ± 11% | ~100% | ~ 100%
7 | CCCn1cc(NC(=O)CCCCC(=O)Nc2cc(-c3nc4ccc(-c5nc6ccc(N7CCN(C)CC7)cc6[nH]5)cc4[nH]3)n(CCC)c2)cc1-c1nc2ccc(-c3nc4ccc(N5CCN(C)CC5)cc4[nH]3)cc2[nH]1 [DB2Py(4)] | 0.4 ± 0.15 µM | ~100% | ~100% | ~ 100%
8 | CCCn1cc(NC(=O)CCCCCC(=O)Nc2cc(-c3nc4ccc(-c5nc6ccc(N7CCN(C)CC7)cc6[nH]5)cc4[nH]3)n(CCC)c2)cc1-c1nc2ccc(-c3nc4ccc(N5CCN(C)CC5)cc4[nH]3)cc2[nH]1 [DB2Py(5)] | 0.35 ± 0.13 µM | ~100% | ~100% | ~ 100%
9 | CCCn1cc(NC(=O)CCCCCCCC(=O)Nc2cc(-c3nc4ccc(-c5nc6ccc(N7CCN(C)CC7)cc6[nH]5)cc4[nH]3)n(CCC)c2)cc1-c1nc2ccc(-c3nc4ccc(N5CCN(C)CC5)cc4[nH]3)cc2[nH]1 [DB2Py(7)] | 0.28 ± 0.01 µM | ~100% | ~100% | ~ 100%
10 | CCCn1cc(NC(=O)CCCCCCCCCC(=O)Nc2cc(-c3nc4ccc(-c5nc6ccc(N7CCN(C)CC7)cc6[nH]5)cc4[nH]3)n(CCC)c2)cc1-c1nc2ccc(-c3nc4ccc(N5CCN(C)CC5)cc4[nH]3)cc2[nH]1 [DB2Py(9)] | 0.3 ± 0.08 µM | ~100% | ~100% | ~ 100%
11 | CCCn1cc(NC(=O)CCCCCCCCCCCC(=O)Nc2cc(-c3nc4ccc(-c5nc6ccc(N7CCN(C)CC7)cc6[nH]5)cc4[nH]3)n(CCC)c2)cc1-c1nc2ccc(-c3nc4ccc(N5CCN(C)CC5)cc4[nH]3)cc2[nH]1 [DB2Py(11)] | 0.9 ± 0.1 µM | ~100% | ~100% | ~ 100%
12 | CN1CCN(c2ccc3nc(-c4ccc5nc(-c6ccc7nc(CNC(=O)CC(=O)NCc8nc9ccc(-c%10nc%11ccc(-c%12nc%13ccc(N%14CCN(C)CC%14)cc%13[nH]%12)cc%11[nH]%10)cc9[nH]8)[nH]c7c6)[nH]c5c4)[nH]c3c2)CC1 [DB3(1)] | > 50 µM | 70 ± 6% | 55 ± 13% | ~ 100%
